# pIC50: −log10 of the molar value.
# Biological target: T1, human recombinant LPA2 expressed in CHO cells (Homo sapiens, UniProt Q9HBW0)
# T1 construct: expressed in transfected cells; host or cells: CHO cells (CHO-hLPA2 cell line)
# Experiment: FLIPR calcium mobilization assay, LPA2 antagonism in CHO-hLPA2 cells
# Assay type: cell-based
# Conditions: CHO-hLPA2 cells, inhibition of LPA EC80 Ca2+ response, 30 min pre-incubation; read-out: LPA2 IC50
# Procedure, shortened: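 CHO cells stably expressing human LPA2, loaded 30 min at 37° C with 5 μM Cal-520 AM plus 2.5 mM probenecid in HEPES buffer pH 7.4, then preincubated 30 min with antagonist (11-point series, 0.5% DMSO final). Challenged with LPA at EC80; baseline-subtracted peak FLIPR fluorescence converted to % inhibition and pIC50 by four-parameter logistic fit.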
# T1 sequence (Q9HBW0 whole entry): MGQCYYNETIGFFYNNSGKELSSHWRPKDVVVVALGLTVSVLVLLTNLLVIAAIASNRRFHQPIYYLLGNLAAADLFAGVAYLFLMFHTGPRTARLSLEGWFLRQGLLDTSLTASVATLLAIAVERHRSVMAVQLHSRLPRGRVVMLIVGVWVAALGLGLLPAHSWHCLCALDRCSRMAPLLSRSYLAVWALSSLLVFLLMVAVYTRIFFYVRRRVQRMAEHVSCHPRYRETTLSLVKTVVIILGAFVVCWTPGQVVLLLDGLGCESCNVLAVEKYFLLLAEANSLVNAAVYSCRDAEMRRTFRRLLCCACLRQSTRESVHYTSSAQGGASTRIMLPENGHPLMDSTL
row,SMILES,pIC50
1,"COC(=O)Nc1nc(C)c(S(=O)(=O)N2CCN(C[C@H](C)Nc3ncnc4c(-c5ccc(F)c(Cl)n5)cccc34)CC2)s1 [Example 74, methyl N-[5-({4-[(2S)-2-{[8-(6-chloro-5-fluoropyridin-2-yl)quinazolin-4-yl]amino}propyl]piperazin-1-yl}sulfonyl)-4-methyl-1,3-thiazol-2-yl]carbamate]",7.00 to 8.00
2,"COC(=O)Nc1ncc(S(=O)(=O)N2CCN(C[C@H](C)Nc3ncnc4c(-c5cccc(CN(C)C)c5)cccc34)CC2)s1 [Example 75, methyl N-[5-({4-[(2S)-2-[(8-{3-[(dimethylamino)methyl]phenyl}quinazolin-4-yl)amino]propyl]piperazin-1-yl}sulfonyl)-1,3-thiazol-2-yl]carbamate]",> 8.00
3,"Cc1ccc(-c2cccc3c(N[C@@H](C)CN4CCN(S(=O)(=O)c5ccc6[nH]c(=O)sc6c5)CC4)ncnc23)cn1 [Example 78, 6-({4-[(2S)-2-{[8-(6-methylpyridin-3-yl)quinazolin-4-yl]amino}propyl]piperazin-1-yl}sulfonyl)-2,3-dihydro-1,3-benzothiazol-2-one]",7.00 to 8.00
4,"C[C@@H](CN1CCN(S(=O)(=O)c2ccc3[nH]c(=O)sc3c2)CC1)Nc1ncnc2c(-c3cn(C)nc3C(F)(F)F)cccc12 [Example 79, 6-({4-[(2S)-2-({8-[1-methyl-3-(trifluoromethyl)-1H-pyrazol-4-yl]quinazolin-4-yl}amino)propyl]piperazin-1-yl}sulfonyl)-2,3-dihydro-1,3-benzothiazol-2-one]",> 8.00
5,"COC(=O)Nc1nc(C)c(S(=O)(=O)N2CCN(C[C@H](C)Nc3ncnc4c(-c5ccc6c(c5)CN(C)C6)cccc34)CC2)s1 [Example 80, methyl N-[4-methyl-5-({4-[(2S)-2-{[8-(2-methyl-2,3-dihydro-1H-isoindol-5-yl)quinazolin-4-yl]amino}propyl]piperazin-1-yl}sulfonyl)-1,3-thiazol-2-yl]carbamate]",> 8.00
6,"Cc1nc2ccc(S(=O)(=O)N3CCN(C[C@H](C)Nc4ncnc5c(-c6cccnc6)cccc45)CC3)cc2s1 [Example 83, N-[(2S)-1-{4-[(2-methyl-1,3-benzothiazol-6-yl)sulfonyl]piperazin-1-yl}propan-2-yl]-8-(pyridin-3-yl)quinazolin-4-amine]",> 8.00
7,"C[C@@H](CN1CCN(S(=O)(=O)c2ccccc2)CC1)Nc1ncnc2c(-c3cn(C)nc3C(F)(F)F)cccc12 [Example 88, N-[(2S)-1-[4-(benzenesulfonyl)piperazin-1-yl]propan-2-yl]-8-[1-methyl-3-(trifluoromethyl)-1H-pyrazol-4-yl]quinazolin-4-amine]",7.00 to 8.00
8,"COC(=O)Nc1nc(C)c(S(=O)(=O)N2CCN(C[C@H](C)Nc3ncnc4c(-c5cccc(CN(C)C)c5F)cccc34)CC2)s1 [Example 90, methyl N-[5-({4-[(2S)-2-[(8-{3-[(dimethylamino)methyl]-2-fluorophenyl}quinazolin-4-yl)amino]propyl]piperazin-1-yl}sulfonyl)-4-methyl-1,3-thiazol-2-yl]carbamate]",> 8.00
9,"COC(=O)Nc1nc(C)c(S(=O)(=O)N2CCN(C[C@H](C)Nc3ncnc4c(-c5ccc(C)c(CN(C)C)c5)cccc34)CC2)s1 [Example 91, methyl N-[5-({4-[(2S)-2-[(8-{3-[(dimethylamino)methyl]-4-methylphenyl}quinazolin-4-yl)amino]propyl]piperazin-1-yl}sulfonyl)-4-methyl-1,3-thiazol-2-yl]carbamate]",> 8.00

# The remaining lines, values ahead:
row,pIC50,SMILES
1,7.00 to 8.00,"COC(=O)Nc1nc(C)c(S(=O)(=O)N2CCN(C[C@H](C)Nc3ncnc4c(-c5ccnc(C#N)n5)cccc34)CC2)s1 [Example 73, methyl N-[5-({4-[(2S)-2-{[8-(2-cyanopyrimidin-4-yl)quinazolin-4-yl]amino}propyl]piperazin-1-yl}sulfonyl)-4-methyl-1,3-thiazol-2-yl]carbamate]"
2,> 8.00,"C[C@@H](CN1CCN(S(=O)(=O)c2ccc3c(c2)CC(=O)N3)CC1)Nc1ncnc2c(-c3cccc(CN(C)C)c3)cccc12 [Example 76, 5-({4-[(2S)-2-[(8-{3-[(dimethylamino)methyl]phenyl}quinazolin-4-yl)amino]propyl]piperazin-1-yl}sulfonyl)-2,3-dihydro-1H-indol-2-one]"
3,> 8.00,"C[C@@H](CN1CCN(S(=O)(=O)c2ccc3[nH]c(=O)[nH]c(=O)c3c2)CC1)Nc1ncnc2c(-c3cccc(CN(C)C)c3)cccc12 [Example 77, 6-({4-[(2S)-2-[(8-{3-[(dimethylamino)methyl]phenyl}quinazolin-4-yl)amino]propyl]piperazin-1-yl}sulfonyl)-1,2,3,4-tetrahydroquinazoline-2,4-dione]"
4,> 8.00,"COCC(=O)Nc1ncc(S(=O)(=O)N2CCN(C[C@H](C)Nc3ncnc4c(-c5cccc(CN(C)C)c5)cccc34)CC2)s1 [Example 81, N-[5-({4-[(2S)-2-[(8-{3-[(dimethylamino)methyl]phenyl}quinazolin-4-yl)amino]propyl]piperazin-1-yl}sulfonyl)-1,3-thiazol-2-yl]-2-methoxyacetamide]"
5,> 8.00,"COC(=O)Nc1nc(C)c(S(=O)(=O)N2CCN(C[C@H](C)Nc3ncnc4c(-c5c[nH]nc5C(F)(F)F)cccc34)CC2)s1 [Example 82, methyl N-[4-methyl-5-({4-[(2S)-2-({8-[3-(trifluoromethyl)-1H-pyrazol-4-yl]quinazolin-4-yl}amino)propyl]piperazin-1-yl}sulfonyl)-1,3-thiazol-2-yl]carbamate]"
6,> 8.00,"Cc1nc2ccc(S(=O)(=O)N3CCN(C[C@H](C)Nc4ncnc5c(-c6cccc(CN(C)C)c6)cccc45)CC3)cc2s1 [Example 84, 8-{3-[(dimethylamino)methyl]phenyl}-N-[(2S)-1-{4-[(2-methyl-1,3-benzothiazol-6-yl)sulfonyl]piperazin-1-yl}propan-2-yl]quinazolin-4-amine]"
7,> 8.00,"Cc1ccc(-c2cccc3c(N[C@@H](C)CN4CCN(S(=O)(=O)c5ccc(-c6cc(C)no6)s5)CC4)ncnc23)cn1 [Example 85, N-[(2S)-1-(4-{[5-(3-methyl-1,2-oxazol-5-yl)thiophen-2-yl]sulfonyl}piperazin-1-yl)propan-2-yl]-8-(6-methylpyridin-3-yl)quinazolin-4-amine]"
8,> 8.00,"Cc1nc(NC(=O)CN(C)C)sc1S(=O)(=O)N1CCN(C[C@H](C)Nc2ncnc3c(-c4cn(C)nc4C(F)(F)F)cccc23)CC1 [Example 86, 2-(dimethylamino)-N-[4-methyl-5-({4-[(2S)-2-({8-[1-methyl-3-(trifluoromethyl)-1H-pyrazol-4-yl]quinazolin-4-yl}amino)propyl]piperazin-1-yl}sulfonyl)-1,3-thiazol-2-yl]acetamide]"
9,> 8.00,"COC(=O)Nc1nc(C)c(S(=O)(=O)N2CCN(C[C@H](C)Nc3ncnc4c(-c5cncc(C=O)c5)cccc34)CC2)s1 [Example 87, methyl N-[5-({4-[(2S)-2-{[8-(5-formylpyridin-3-yl)quinazolin-4-yl]amino}propyl]piperazin-1-yl}sulfonyl)-4-methyl-1,3-thiazol-2-yl]carbamate]"
10,> 8.00,"COC(=O)Nc1nc(C)c(S(=O)(=O)N2CCN(C[C@H](C)Nc3ncnc4c(-c5cccc(CN(C)C)c5C)cccc34)CC2)s1 [Example 89, methyl N-[5-({4-[(2S)-2-[(8-{3-[(dimethylamino)methyl]-2-methylphenyl}quinazolin-4-yl)amino]propyl]piperazin-1-yl}sulfonyl)-4-methyl-1,3-thiazol-2-yl]carbamate]"
